According to ChEMBL document CHEMBL3885881, “DrugMatrix”:

Species on record: Rattus norvegicus
Test: DrugMatrix - Regimen: Daily Repeat
Assay type: toxicity, organism-based, Sprague-Dawley
Parameters: regimen Daily Repeat, gender Male, age 6-8 weeks
Conditions: in vivo, po, route oral GAVAGE, vehicle 100 % WATER; for ABSOLUTE BASOPHIL / ABSOLUTE EOSINOPHIL / ABSOLUTE LYMPHOCYTE / ABSOLUTE MONOCYTE / ABSOLUTE SEGMENTED NEUTROPHIL / BASOPHIL / EOSINOPHIL / ERYTHROCYTE COUNT / HEMATOCRIT / HEMOGLOBIN / LEUKOCYTE COUNT / LYMPHOCYTE / MEAN CORPUSCULAR HEMOGLOBIN / MEAN CORPUSCULAR HEMOGLOBIN CONCENTRATION / MEAN CORPUSCULAR VOLUME / MONOCYTE / NEUTROPHIL / NUCLEATED RED BLOOD CELLS / PLATELET COUNT: tissue Blood; for ALANINE AMINOTRANSFERASE / ALBUMIN / ALKALINE PHOSPHATASE / ASPARTATE AMINOTRANSFERASE / BLOOD UREA NITROGEN / CARBON DIOXIDE / CHLORIDE / CHOLESTEROL / CREATINE PHOSPHOKINASE / CREATININE / GLUCOSE / LACTATE DEHYDROGENASE / LIPASE / PHOSPHORUS / SODIUM / TOTAL BILIRUBIN / TOTAL PROTEIN / URIC ACID: tissue Plasma
[1] = 0 mg/kg, 72 h, dose level Control, time 3 day
[2] = 0 mg/kg, 120 h, dose level Control, time 5 day
[3] = 100 mg/kg, 72 h, dose level Low, time 3 day

SMILES: CCN(CC)C(=S)SSC(=S)N(CC)CC
- ABSOLUTE BASOPHIL [1]: 0 CELLS/uL
- ABSOLUTE EOSINOPHIL [1]: 58.83 CELLS/uL
- ABSOLUTE LYMPHOCYTE [1]: 11823.5 CELLS/uL
- ABSOLUTE MONOCYTE [1]: 169 CELLS/uL
- ABSOLUTE SEGMENTED NEUTROPHIL [1]: 815.33 CELLS/uL
- BASOPHIL [1]: 0%
- EOSINOPHIL [1]: 0.5%
- ERYTHROCYTE COUNT [1]: 5.52 x10E6/uL
- HEMATOCRIT [1]: 35.77%
- HEMOGLOBIN [1]: 14.28 G/DL
- LEUKOCYTE COUNT [1]: 12.87 x10E3/uL
- LYMPHOCYTE [1]: 91.67%
- MEAN CORPUSCULAR HEMOGLOBIN [1]: 25.92 pg
- MEAN CORPUSCULAR HEMOGLOBIN CONCENTRATION [1]: 39.95 G/DL
- MEAN CORPUSCULAR VOLUME [1]: 64.85 fL
- MONOCYTE [1]: 1.33%
- NEUTROPHIL [1]: 6.5%
- NUCLEATED RED BLOOD CELLS [1]: 0 /100WBC
- PLATELET COUNT [1]: 1246.17 x10E3/uL
- ALANINE AMINOTRANSFERASE [1]: 66 u/L
- ALBUMIN [1]: 4.25 G/DL
- ALKALINE PHOSPHATASE [1]: 416 u/L
- ASPARTATE AMINOTRANSFERASE [1]: 106.17 u/L
- BLOOD UREA NITROGEN [1]: 12.67 mg/dL
- CARBON DIOXIDE [1]: 31.83 mmol/L
- CHLORIDE [1]: 102.5 MEQ/L
- CHOLESTEROL [1]: 69 mg/dL
- CREATINE PHOSPHOKINASE [1]: 601.83 u/L
- CREATININE [1]: 0.18 mg/dL
- GLUCOSE [1]: 154.5 mg/dL
- LACTATE DEHYDROGENASE [1]: 301.83 u/L
- LIPASE [1]: 11.17 u/L
- PHOSPHORUS [1]: 12.08 mg/dL
- SODIUM [1]: 145.2 MEQ/L
- TOTAL BILIRUBIN [1]: 0.17 mg/dL
- TOTAL PROTEIN [1]: 6.1 G/DL
- URIC ACID [1]: 1.57 mg/dL
- ABSOLUTE BASOPHIL [2]: 0 CELLS/uL
- ABSOLUTE EOSINOPHIL [2]: 19.33 CELLS/uL
- ABSOLUTE LYMPHOCYTE [2]: 12577.83 CELLS/uL
- ABSOLUTE MONOCYTE [2]: 106.33 CELLS/uL
- ABSOLUTE SEGMENTED NEUTROPHIL [2]: 896.5 CELLS/uL
- BASOPHIL [2]: 0%
- EOSINOPHIL [2]: 0.17%
- ERYTHROCYTE COUNT [2]: 5.84 x10E6/uL
- HEMATOCRIT [2]: 36.88%
- HEMOGLOBIN [2]: 14.48 G/DL
- LEUKOCYTE COUNT [2]: 13.6 x10E3/uL
- LYMPHOCYTE [2]: 92.17%
- MEAN CORPUSCULAR HEMOGLOBIN [2]: 24.85 pg
- MEAN CORPUSCULAR HEMOGLOBIN CONCENTRATION [2]: 39.3 G/DL
- MEAN CORPUSCULAR VOLUME [2]: 63.23 fL
- MONOCYTE [2]: 0.83%
- NEUTROPHIL [2]: 6.83%
- NUCLEATED RED BLOOD CELLS [2]: 0 /100WBC
- PLATELET COUNT [2]: 1223.5 x10E3/uL
- ALANINE AMINOTRANSFERASE [2]: 55.33 u/L
- ALBUMIN [2]: 4.08 G/DL
- ALKALINE PHOSPHATASE [2]: 355.5 u/L
- ASPARTATE AMINOTRANSFERASE [2]: 87.67 u/L
- BLOOD UREA NITROGEN [2]: 15.33 mg/dL
- CARBON DIOXIDE [2]: 33.83 mmol/L
- CHLORIDE [2]: 99.67 MEQ/L
- CHOLESTEROL [2]: 72.17 mg/dL
- CREATINE PHOSPHOKINASE [2]: 268.33 u/L
- CREATININE [2]: 0.15 mg/dL
- GLUCOSE [2]: 152.5 mg/dL
- LACTATE DEHYDROGENASE [2]: 212.67 u/L
- LIPASE [2]: 10.83 u/L
- PHOSPHORUS [2]: 11.65 mg/dL
- SODIUM [2]: 142.43 MEQ/L
- TOTAL BILIRUBIN [2]: 0.23 mg/dL
- TOTAL PROTEIN [2]: 6.07 G/DL
- URIC ACID [2]: 1.7 mg/dL
- ABSOLUTE BASOPHIL [3]: 0 CELLS/uL
- ABSOLUTE EOSINOPHIL [3]: 157.33 CELLS/uL
- ABSOLUTE LYMPHOCYTE [3]: 16865.67 CELLS/uL
- ABSOLUTE MONOCYTE [3]: 329 CELLS/uL
- ABSOLUTE SEGMENTED NEUTROPHIL [3]: 2381.33 CELLS/uL
- BASOPHIL [3]: 0%
- EOSINOPHIL [3]: 0.67%
- ERYTHROCYTE COUNT [3]: 5.56 x10E6/uL
- HEMATOCRIT [3]: 35.37%
- HEMOGLOBIN [3]: 14.23 G/DL
- LEUKOCYTE COUNT [3]: 19.73 x10E3/uL
- LYMPHOCYTE [3]: 85.67%
- MEAN CORPUSCULAR HEMOGLOBIN [3]: 25.63 pg
- MEAN CORPUSCULAR HEMOGLOBIN CONCENTRATION [3]: 40.27 G/DL
- MEAN CORPUSCULAR VOLUME [3]: 63.63 fL
- MONOCYTE [3]: 1.67%
- NEUTROPHIL [3]: 12%
- NUCLEATED RED BLOOD CELLS [3]: 0 /100WBC
- PLATELET COUNT [3]: 1201.33 x10E3/uL
- ALANINE AMINOTRANSFERASE [3]: 56 u/L
- ALBUMIN [3]: 3.87 G/DL
- ALKALINE PHOSPHATASE [3]: 264.33 u/L
- ASPARTATE AMINOTRANSFERASE [3]: 73.33 u/L
- BLOOD UREA NITROGEN [3]: 11.67 mg/dL
- CARBON DIOXIDE [3]: 31.67 mmol/L
- CHLORIDE [3]: 102.33 MEQ/L
- CHOLESTEROL [3]: 84.33 mg/dL
- CREATINE PHOSPHOKINASE [3]: 223.33 u/L
- CREATININE [3]: 0.28 mg/dL
- GLUCOSE [3]: 140.67 mg/dL
- LACTATE DEHYDROGENASE [3]: 124 u/L
- LIPASE [3]: 14.33 u/L
- PHOSPHORUS [3]: 11.63 mg/dL
- SODIUM [3]: 144.57 MEQ/L
- TOTAL BILIRUBIN [3]: 0.1 mg/dL
- TOTAL PROTEIN [3]: 5.7 G/DL
- URIC ACID [3]: 1.23 mg/dL
